From patent publication US9125406B2, “Methods and compositions for control of cabbage looper, trichoplusia ni” (Simon Fraser University, priority 2008, dated 2015)
Read-outs that look alike come from different tables or passages of the source.

What was measured:
T. ni moths [1] = test: Oviposition choice (deterrence) bioassay on cabbage leaves; format: in vivo, Trichoplusia ni; details: for pest or weed control at 0.25 %: Trichoplusia, 48 h, read-out: OD (%) Mean ± SE N = 35-40
T. ni moths [2] = test: as above; format: in vivo, Trichoplusia ni; details: for % deterrence / Index = deterrence/mortality: Table 11; for % deterrence: BL mark not explained; for Index = deterrence/mortality: oviposition deterrence divided by mortality
Experimental: (§1) Initial screening for feeding deterrent effects was conducted at 50 μg/cm^2 in feeding deterrent bioassays.
T. ni larvae were reared on normal diet from neonates (<24 h old) until pupation. Pupae were sexed and put in separate plastic containers until emergence. After eclosion, pairs of moths (one male and one female) were introduced into each cage with a control and a treated cabbage leaf. Pairs of moths (n=25) were used per treatment. Each leaf (approximately 100-110 cm^2) was sprayed with 0.5 mL of MeOH or a methanolic solution of the test chemical on each side. Eggs were counted on each cabbage leaf after 48 h.

[3] = system: third instar T. ni larvae; test: whole plant or invertebrate; details: for mortality at 0.25 %: Trichoplusia, topical, 24 h
Experimental: as §1
Mortality was determined 24 h after spraying larvae directly with test solutions. Third instar T. ni larvae were sprayed in 90 mm×15 mm Petri dishes (Falcon) lined with Fisher Scientific filter paper (90 mm diameter). Small plastic hand spraying bottles (50 mL capacity) were used. Larvae were then transferred to Petri dishes (90 mm×15 mm) with a small piece of artificial diet. Each Petri dish contained 10 larvae. Three replicates, each consisting of 10 larvae, were used per treatment.

[4] = system: third instar T. ni larvae; test: Leaf disk choice feeding deterrence bioassay; format: in vivo, Trichoplusia ni; details: for pest or weed control at 50 µg/cm2, 50 µg/cm2 / pest or weed control at 50 µg/cm2: Trichoplusia, foliar; for pest or weed control at 50 µg/cm2: read-out: % deterrence; for DC50: feeding deterrence DC50, unit not given in Table 12
Description: Cabbage plants (Brassica oleraceae var. Stonehead) used in the bioassays were routinely grown in plastic pots with a mixture of sandy loam soil and peat moss (4:1) in a greenhouse at the University of British Columbia, Vancouver, BC, Canada. Leaves were collected from cabbage plants that were 5-6 weeks old.
T. ni larvae and moths were obtained from a long established colony (>50 generations) maintained on an artificial diet, Velvetbean Caterpillar Diet No. F9796 [Bio-Sery Inc. (Frenchtown, NIL)] in the insectary of the University of British Columbia (UBC).
as §1
Larvae were given the choice of feeding on two leaf disks, one treated with 10 μL of a solution of the test substance painted on each side and the other treated with a carrier solvent alone. The number of larvae was 25 per treatment.
Feeding deterrence data (percent) for initial screening concentration were analyzed by analysis of variance (ANOVA) after arcsin transformation using statistics software (Statistix 7. Analytical Software, Statistix 7 for Windows 95, 98, NT, 2000. Analytical Software, Tallahassee).

Trichoplusia ni larva = test: Leaf-disc choice bioassay on cabbage: dose-response and blend assay (Example 12); format: in vivo
Experimental: T. ni larvae were raised from eggs (Insect Production Services, Natural Resources Canada) on a wheat-germ based artificial diet (McMorran diet, Insect Production Services, Natural Resources Canada), or raised from eggs from a laboratory colony of T. ni adults, at 22±1° C., 32-40% humidity, 9 h/15 h light/dark photoperiod.
Cabbage (Brassica oleracea L. cv. Golden Acre) plants were grown from seed (Pacific Northwest Seeds, Vernon, B.C.) in sandy loam soil in the laboratory at 21±1° C. beside a south-facing window. Plants received supplemental lighting from grow-lights emitting light of wavelengths 430 and 662 nm for 2 h/d. Plants were about 2-3 months old (with about 8-12 fully expanded leaves) at time of leaf collection for disc choice bioassays.
3c{3,6} was synthesized as described herein. Azadirachtin in a neem oil preparation (TreeAzin [5% azadirachtins A and B]) was obtained from BioForest Technologies Inc., Sault Step. Marie, Canada. Azadirachtin solutions were prepared fresh on the day of the bioassay to avoid degradation. Cetyl alcohol was obtained from Sigma, palmitic acid from BDH Chemicals Ltd., methanol (HPLC-grade) from Calcdon, and isopropanol (2-propanol-205, distilled in glass) from Calcdon Ammonium hydroxide solution was obtained from CanLab.
Blend and whole plant studies used a “vehicle” that consisted of palmitic acid (25 mM), cetyl alcohol (25 mM), and isopropanol (50%). The vehicle was prepared by dissolving palmitic acid and cetyl alcohol in isopropanol. The solution was neutralized with 1M NaOH, followed by step-wise dilution with water.
Leaf discs (disc area: 2.24 cm^2) cut with a no. 10 borer from cabbage plant leaves were painted on each side with 20 μL of treatment solution or solvent, using a Hamilton 25 μL glass syringe, and allowed to dry. One treatment and one control leaf disc were placed on opposite sides (5 cm apart) of a 9 cm diameter Petri dish containing moistened filter paper (Whatman #1, 70 mm). A fasting Trichoplusia ni larva was placed midway between the two leaf discs and oriented away from either disc. Replicate Petri dishes were kept in a plastic basin, protected from light, at 22±1° C. during the feeding period. Larvae fasted for approximately 7 h prior to the experiments. […]
Leaf disc areas consumed were measured using a Canon CanoS can LiDE 20 scanner, CanoScan Toolbox 4.1 software, Microsoft Office Picture Manager, and Un-Scan-It Gel and Graph Digitizing Software v. […]
In the dose-response study leaf-disc choice bioassays were performed with larvae in day 1 or 2 of the 3rd and 4th instar. […] There were not enough data points in the dose-response data for a sigmoidal fit, but the DC50 could be determined by linear regression analysis, as was the case for Akhtar et al. (2007). […]

T. ni neonates = test: Greenhouse test on cabbage plants with T. ni neonates; format: in vivo, Trichoplusia ni; details: for mean larval recovery / weight reduction: 6 days
Experimental: […] Cabbage plants had 3-5 leaves. Each plant was sprayed (˜1 ml/leaf) and dried before the introduction of insects. There were 3 replicates of 5 plants for each treatment. Approximately nine T. ni neonates (<24 h old) were transferred on each plant. They were weighed after 6 days of feeding on the treatments. Numbers of larvae recovered from each treatment were also recorded. […] The mean larval recovery was not affected at the lowest concentration (0.0002%).

[5] = oviposition deterrence at 0.25%
[6] = read-out: Mortality (%) N = 3 × 10, Table 8, at 0.25%
[7] = contact toxicity to larvae, negative or zero values replaced by 0.1 for the index (footnote b)
[8] = Table 8, 50 μg/cm^2, read-out: F.D (%) Mean ± SE N = 25
[9] = feeding deterrence (FD), Table 12, non-toxic feeding deterrents
[10] = read-out: Mortality (%) N = 3 × 10, Table 10, at 0.25%

| SMILES | pest or weed control at 0.25 % (T. ni moths [1]; Table 8, at 0.25%) [%] | mortality at 0.25 % [3, 6] [%] | % mortality [3, 7] | pest or weed control at 50 µg/cm2, 50 µg/cm2 [4, 8] [%] | pest or weed control at 50 µg/cm2 [4, 9] [%] | DC50 [4] [μg/cm^2] | further results |
| --- | --- | --- | --- | --- | --- | --- | --- |
| CCCCOc1ccccc1OCCC [3a{3, 4}, 1-propoxy-2-butoxybenzene] | 37 ± 14 | 19 | 19% | 98 ± 2 | 98 | 21 | % deterrence (T. ni moths [2]; [5]): 37 BL %; Index = deterrence/mortality (T. ni moths [2]): 1.9 |
| C=CCOc1ccc(OCCC(C)C)cc1 [3c{5, 6}, 1-allyloxy-4-isopentoxybenzene] | -25 ± 12 | – | – | – | – | – | pest or weed control at 0.25 % (T. ni moths [2]; Trichoplusia, 48 h, Table 3, oviposition deterrence at 0.25%, 48 h, read-out: OD (%), mean ± SE (n = 25-33)): 18.8 ± 14.3%; mortality at 0.25 % ([3]; read-out: mortality (%) (n = 3 × 10), Table 3, at 0.25%): 7%; pest or weed control at 50 µg/cm2, 50 µg/cm2 ([4]; Table 3, 1,4-dialkoxybenzenes, feeding deterrence at 50 μg/cm^2, read-out: FD (%), mean ± SE (n = 25)): 75.1 ± 12.7% |
| C/C=C(\C)C(=O)O[C@H]1C[C@@H](OC(C)=O)[C@@]2(C(=O)OC)CO[C@H]3[C@@H](O)[C@@](C)([C@]45O[C@@]4(C)[C@H]4C[C@@H]5O[C@@H]5OC=C[C@@]54O)[C@H]4[C@]1(CO[C@]4(O)C(=O)OC)[C@@H]32 [azadirachtin, reference compound] | – | – | – | – | – | – | FDI (%) mean (SE) (Trichoplusia ni larva; 4.9 ug/cm^2 in vehicle, fifth instar larvae): 43 (20) a % |
| C=CCOc1ccccc1OCCCC [3a{4, 6}, 1-allyloxy-2-butoxybenzene] | 35 ± 17 | 19 | 19% | 92 ± 6 | 92 | 17 | % deterrence (T. ni moths [2]; [5]): 35 BL %; Index = deterrence/mortality (T. ni moths [2]): 1.8 |
| C=CCOc1ccc(OCC)cc1 [3c{2, 6}, 1-allyloxy-4-ethoxybenzene] | < 30 | 6.7 | – | 73 ± 12 | – | – | – |
| CCCOc1ccc(OCC)cc1 [3c{2, 3}, 4-ethoxy-1-propoxybenzene] | 10 ± 13 | 17 | 17% | 100 | 100 | 33 | – |
| C=CCOc1cccc(OC)c1 [3b{1, 6}, 1-allyloxy-3-methoxybenzene] | 9 ± 14 | 33 | – | 66 ± 12 | – | – | – |
| CCN(CC)C(=O)c1cccc(C)c1 [DEET, reference compound] | – | – | – | – | – | – | OD (%) Mean ± SE N = 35-40 (T. ni moths [1]; Table 8, at 0.25%): 23 ± 14%; Mortality (%) N = 3 × 10 ([3]; Table 8, at 0.25%): 7%; F.D (%) Mean ± SE N = 25 ([4]; Table 8, 50 μg/cm^2): 60 ± 15 ^AB % |
| CCCOc1cccc(OCCC(C)C)c1 [3b{3, 5}, 3-propoxy-1-isopentoxybenzene] | 9 ± 17 | 10 | 10% | 97 ± 3 | 97 | 17 | – |
| C=CCc1cc(OC)ccc1OC [5c{1, 1}, 1,4-dimethoxy-2-allyl-benzene] | – | – | – | – | – | 20 | pest or weed control at 0.25 % (T. ni moths [1]): 14 ± 12%; mortality at 0.25 % [3, 10]: 38.9%; % mortality ([3]; in vivo): 39%; pest or weed control at 50 µg/cm2 [4]: 80%; pest or weed control at 50 µg/cm2, 50 µg/cm2 ([4]; read-out: F.D (%) Mean ± SE N = 25): 80 ± 11% |
| C=CCOc1cccc(OCC=C)c1 [3b{6, 6}, 1,3-Diallyloxy benzene] | 25 to 30 | 13 | 13% | 97 ± 3 | 97 | 20 | – |
| C=CCOc1ccc(OCCC)cc1 [3c{3, 6}, 1-allyloxy-4-propoxybenzene] | < 30 | – | −11 ^b % | 100 | 100 | 0.5 | mean larval recovery (T. ni neonates; 0.0002% spray): not affected; weight of the larvae (T. ni neonates; 0.0002% spray, 6 days feeding on cabbage plants): not affected; mean larval recovery (T. ni neonates; 0.0005% spray): 66.7%; weight reduction (T. ni neonates; 0.0005% spray): 33.3%; mean larval recovery (T. ni neonates; 0.001% spray): 52%; weight reduction (T. ni neonates; 0.001% spray): 48%; growth reduction (T. ni neonates; 10 ppm, highest concentration): ~50%; FDI (%) mean (SE) (Trichoplusia ni larva; 45 ug/cm^2): 100 (0) b %; FDI (%) mean (SE) (Trichoplusia ni larva; 45 ug/cm^2, listed as 3c{3,6}): 100±0%; DC50 (Trichoplusia ni larva; 3rd and 4th instar larvae, 83% methanol, linear regression 9 to 45 μg/cm^2): 27 μg/cm^2 |
| C=CCc1c(OCC)cccc1OCCC [5b{3, 2} y (100% y), 1-ethoxy-2-allyl-3-propoxy-benzene] | – | – | – | – | – | – | pest or weed control at 0.25 % (T. ni moths [1]; Table 7, second lots and purified isomers, at 0.25%): -6.4 ± 11.4%; mortality at 0.25 % ([3]; read-out: Mortality (%) N = 3 × 10, Table 7, second lots and purified isomers, at 0.25%): 0%; pest or weed control at 50 µg/cm2, 50 µg/cm2 ([4]; Table 7, second lots and purified isomers, 50 μg/cm^2, read-out: F.D (%) Mean ± SE N = 25): 74 ± 14% |
| C=CCc1cc(OCCC)ccc1OC [5c{3, 1}, 1-methoxy-2-allyl-4-propoxy-benzene] | – | – | 6% | – | 92 | 9 | pest or weed control at 0.25 % (T. ni moths [1]; Table 10, at 0.25%): 7 ± 15%; mortality at 0.25 % [3, 10]: 6.4%; pest or weed control at 50 µg/cm2, 50 µg/cm2 ([4]; Table 10, 50 μg/cm^2, read-out: F.D (%) Mean ± SE N = 25): 92 ± 6% |
